Several values for one entry are separate records, joined by “and”; a condition that tells them apart may be missing. Equal entries are not always repeated. Where two headings read alike, the source gives them in different places.
Assays:
[1] = test system: lung, non-small cell cancer; test: In Vitro Human Tumor Colony Forming Units Test, lung, non-small cell; type: cell-based; conditions: 50.0 μg/ml, continuous exposure
Description: (§1) Solid tumors removed from patients are minced into 2 to 5 mm fragments and immediately placed in McCoy's Medium 5A plus 10% heat inactivated newborn calf serum lus 1% penicillin/streptomycin. Within 4 hours, these solid tumors are mechanically disassociated with scissors, forced through No. 100 stainless steel mesh, through 25 gauge needles, and then washed with McCoys medium as described above. Ascitic, pleural, pericardial fluids and bone marrow are obtained by standard techniques. The fluid or marrow is placed in sterile containers containing 10 units of preservative free heparin per ml. of malignant fluid or marrow. After centrifugation at 150× g for 10 minutes, the cells are harvested and washed with McCoy's medium plus 10% heat inactivated calf serum. The viability of cell suspensions is determined on a hemocytometer with trypan blue.
(§2) Cells to be cloned are suspended in 0.3% agar in enriched CMRL1066 supplemented with 15% heat inactivated horse serum, penicillin (100 units/ml), streptomycin ([…]), glutamine (2 mM ), insulin (3 units/ml), asparagine (0.6 mg/ml), and HEPES buffer (2 mM ). For the continuous exposure test each compound is added to the above mixture. […] If there is <30% cells in the positive control when compared to the untreated control, the test is evaluated. […]

Rhinovirus = conditions: in vivo Rhinovirus
[2] = test system: solid tumors removed from patients; test: In Vitro Human Tumor Colony Forming Units Test; type: cell-based; conditions: for effective against tumors (number of tumors): continuous exposure or single dose experiment
Description: as §1
Cells to be cloned are suspended in 0.3% agar in enriched CMRL1066 supplemented with 15% heat inactivated horse serum, penicillin (100 units/ml), streptomycin ([…]), glutamine (2 mM ), insulin (3 units/ml), asparagine (0.6 mg/ml), and HEPES buffer (2 mM ). For the continuous exposure test each compound is added to the above mixture. Cells are placed in 35 mm petri dishes in a top layer of agar over an underlayer of agar to prevent growth of fibroblasts. Three plates are prepared for each data point. The plates are placed in a 37° C. incubator, and are removed on day 14 for counting of the number of colonies in each plate. The number of colonies (defined as 50 cells) formed in the 3 compound treated plates is compared to the number of colonies formed in the 3 control plates, and the percent colonies surviving at the concentration of compound can be tabulated. Three positive control plates are used to determine survival rate. Orthosodium vanadate at 200 μg/ml is used as the positive control. If there is <30% cells in the positive control when compared to the untreated control, the test is evaluated. […]

ovarian cancer = test: In Vitro Human Tumor Colony Forming Units Test, ovarian; type: cell-based; conditions: 50.0 μg/ml, continuous exposure
Description: as §1, §2

influenza = test: in vitro model for influenza
[3] = test system: human influenza virus, strain AT2/Taiwan/1/64; test: Anti viral evaluation with human influenza virus in mice; type: in vivo; conditions: 21 days observation, virus dose ~90% lethality
murine melanoma (B16) = conditions: for % Increase in survival time relative to control (100%) / Survivors in cancer model: mouse, in vivo
Description: In an in vivo mouse model for murine melanoma (B16) fluconazole was tested alone and in combination with adriamycin (doxorubicin) at various doses.

chronic hepatitis C = conditions: interferon with or without ribavarin; cited from earlier work

With `OC(Cn1cncn1)(Cn1cncn1)c1ccc(F)cc1F` [Fluconazole, 2-(2,4-difluorophenyl)-1,3-bis(1H-1,2,4-triazol-1-yl)propan-2-ol] as the compound, how does the “effectiveness against lung, non-small cell cancer” value [1] read?
Its value is “effective”.

And the “activity in screening test” value (Rhinovirus)?
The value was “Nor was it active”.

And the “effective against tumors (number of tumors)” value ([2]; 0.5 μg/ml)?
Its value is 0/3.

And the “effective against tumors (number of tumors)” value ([2]; 5.0 μg/ml)?
The value was 0/13.

And the “tumors with <50% survival (over all)” value ([2]; 50.0 μg/ml, continuous exposure)?
Its value is 4/13.

And the “effectiveness against ovarian cancer” value (ovarian cancer)?
The value was “effective”.

And the “activity in an in vitro model for influenza” value (influenza)?
Its value is “did not show activity”.

And the “Percent Mortality” value ([3]; 350 mg/kg oral)?
Its value is 0%.

And the “Percent Mortality” value ([3]; 700 mg/kg oral)?
The value was 30%.

And the Toxic deaths (murine melanoma (B16); fluconazole 175 mg/kg, adriamycin 0)?
The Toxic deaths was 0.

What about the Toxic deaths (murine melanoma (B16); fluconazole 350 mg/kg, adriamycin 0) of the same compound?
Its Toxic deaths is 0.

And the Toxic deaths (murine melanoma (B16); fluconazole 700 mg/kg, adriamycin 0)?
Its Toxic deaths is 0.

And the “% Increase in survival time relative to control (100%)” value (murine melanoma (B16))?
The value was 120% and 116% and 117%.

What about the “Survivors in cancer model” value (murine melanoma (B16)) of the same compound?
The value was 0.

Which results are given for `COc1cccc2c1C(=O)c1c(O)c3c(c(O)c1C2=O)C[C@@](O)(C(=O)CO)C[C@@H]3O[C@H]1C[C@H](N)[C@H](O)[C@H](C)O1` [Adriamycin]?
Toxic deaths (murine melanoma (B16); fluconazole 0, adriamycin 2 mg/kg): 0; Toxic deaths (murine melanoma (B16); fluconazole 0, adriamycin 3 mg/kg): 0; Toxic deaths (murine melanoma (B16); fluconazole 0, adriamycin 4 mg/kg): 0; % Increase in survival time relative to control (100%) (murine melanoma (B16)): cures occurred; Survivors in cancer model (murine melanoma (B16)): 6/10 and 8/10 and 10/10

For interferon, which response rate (chronic hepatitis C) is on record?
Its response rate is “about 25%”.

Which “Percent Mortality” value ([3]; 75 mg/kg oral) does the source give for `NC12CC3CC(CC(C3)C1)C2` [Amantadine] here?
Its value is 0%.
